Reference: PMC5647378, “Structural and Mechanistic Analysis of Drosophila melanogaster Agmatine N-Acetyltransferase, an Enzyme that Catalyzes the Formation of N-Acetylagmatine” (Scientific Reports, 2017)
Substitutions are numbered along the chain they refer to. Where “and” joins values, the source holds several entries; their conditions need not be identical. Identical values can stand only once. Like-named read-outs stand apart in the source and are kept apart here. One block for each compound: values may come before it.

Columns and labels:
[1] = molecular target: T1, Drosophila melanogaster AgmNAT (CG15766), wild-type (Drosophila melanogaster, UniProt Q9W469); assay: AgmNAT steady-state kinetics, coenzyme A release with Ellman's reagent (DTNB); format: biochemical
Experimental: (§1) Steady-state kinetic constants for AgmNAT were determined by measuring the rate of coenzyme A release using Ellman’s reagent (DTNB) at 412 nm (molar absorptivity = 13,600 M^−1 cm^−1)[15]–[17]. […] Initial velocities were measured using a Cary 300 Bio UV-Visible spectrophotometer at 22 °C. Acyl-CoA kinetic constants were evaluated by holding the concentration of agmatine at a constant saturating concentration (5 mM). […] The apparent kinetic constants were determined by fitting the resulting data to equation 1 using SigmaPlot 12.0, where vo is the initial velocity, Vmax,app is the apparent maximal velocity, [S] is the substrate concentration, and Km,app is the apparent Michaelis constant. Each assay was performed in triplicate and the uncertainty for the kcat,app and (kcat/Km)app values were calculated using equation 2, where σ is the standard error.1 vo=Vmax,app[S]/Km,app+[S] 2 σ(x/y)=x/y(σx/x)^2+(σy/y)^2

AgmNAT E34A mutant = molecular target: T2, AgmNAT E34A mutant (Drosophila melanogaster, UniProt Q9W469, E34A); assay: Steady-state kinetics of AgmNAT site-directed mutant E34A; format: biochemical; details: for (kcat/Km)app–mutant/(kcat/Km)app–wild–type×100: E34A
T2 sequence (Q9W469 1-216 E34A): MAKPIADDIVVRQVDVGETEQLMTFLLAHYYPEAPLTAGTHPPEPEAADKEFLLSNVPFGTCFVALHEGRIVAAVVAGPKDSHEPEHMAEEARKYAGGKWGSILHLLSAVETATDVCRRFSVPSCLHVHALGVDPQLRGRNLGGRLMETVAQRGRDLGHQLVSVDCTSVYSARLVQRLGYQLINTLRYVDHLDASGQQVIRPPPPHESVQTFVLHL
Experimental: (§2) Site-directed mutants of AgmNAT were constructed by the overlap extension method. Using the primers shown in Table S1, each mutant was amplified using pfuUltra High-Fidelity DNA polymerase with the following PCR conditions: initial denaturing step of 95 °C for 2 min, then 30 cycles of 95 °C for 30 s; 60 °C annealing temperature for 30 s; 72 °C extension step for 1 min; then a final extension step of 72 °C for 10 min. Following the amplification of the AgmNAT site-directed mutant, the sub-cloning, expression, and purification procedures are the same as discussed for the wild-type enzyme.
as §1

AgmNAT P35A mutant = molecular target: T3, AgmNAT P35A mutant (Drosophila melanogaster, UniProt Q9W469, P35A); assay: Steady-state kinetics of AgmNAT site-directed mutant P35A; format: biochemical
T3 sequence (Q9W469 1-216 P35A): T2 sequence (Q9W469 1-216 E34A) with A34E, P35A
Experimental: as §2
as §1, with “Each assay was performed in triplicate and the uncertainty for the kcat,app and (kcat/Km)app values were calculated using equation 2, where σ is the standard error.1 vo=Vmax,app[S]/Km,app+[S] 2 σ(x/y)=x/y(σx/x)^2+(σy/y)^2” left out

AgmNAT S171A mutant = molecular target: T4, AgmNAT S171A mutant (Drosophila melanogaster, UniProt Q9W469, S171A); assay: Steady-state kinetics of AgmNAT site-directed mutant S171A; format: biochemical; details: for (kcat/Km)app–mutant/(kcat/Km)app–wild–type×100: S171A
T4 sequence (Q9W469 1-216 S171A): T2 sequence (Q9W469 1-216 E34A) with A34E, S171A
Experimental: as §2, §1

AgmNAT H206A mutant = molecular target: T5, AgmNAT H206A mutant (Drosophila melanogaster, UniProt Q9W469, H206A); assay: Steady-state kinetics of AgmNAT site-directed mutant H206A; format: biochemical; details: for increase of Km,app versus wild-type: H206A mutant; for (kcat/Km)app–mutant/(kcat/Km)app–wild–type×100: H206A
T5 sequence (Q9W469 1-216 H206A): T2 sequence (Q9W469 1-216 E34A) with A34E, H206A
Experimental: as §2, §1

[2] = molecular target: T1, Drosophila melanogaster AgmNAT (CG15766), wild-type; assay: AgmNAT dead-end and product inhibition analysis; format: biochemical
Experimental: Initial velocities were determined by varying the concentration of one substrate, while holding the other substrate at a fixed concentration. […] The resulting initial velocity data was fit to equation 3 for an ordered Bi-Bi mechanism and equation 4 for a ping pong mechanism using IGOR Pro 6.34 A, where vo is the initial velocity, Vmax is the maximal velocity, Kia is the dissociation constant for substrate A, Kb is the Michaelis constant for substrate B, Ka is the Michaelis constant for substrate A, [A] is the concentration of substrate A, and [B] is the concentration of substrate B.3 vo=Vmax[A][B]/KiaKb+Ka[B]+Kb[A]+[A][B] 4 vo=Vmax[A][B]/Ka[B]+Kb[A]+[A][B]
Inhibition experiments by either substrate analogs or N-acetylagamatine were used to discriminate between an ordered, random sequential, or ping pong kinetic mechanism. […] Initial velocity patterns were generated by varying the concentration of one substrate, holding the other substrate concentration at its apparent Km, and changing the concentration of inhibitor for each data set in triplicate. The resulting data was fit to equations 5–7, for competitive, noncompetitive, and uncompetitive inhibition respectively using SigmaPlot 12.0. For […], vo is the initial velocity, Vmax,app is the apparent maximal velocity, Km,app is the apparent Michaelis constant, [S] is the substrate concentration, [I] is the inhibitor concentration, and Ki is the inhibition constant.5 vo=Vmax,app[S]/Km,app(1+[I]/Ki)+[S] 6 vo=Vmax,app[S]/Km,app(1+[I]/Ki)+[S](1+[I]/Ki) 7 vo=Vmax,app[S]/Km,app+[S](1+[I]/Ki)

[3] = molecular target: T1, Drosophila melanogaster AgmNAT (CG15766), wild-type; assay: AgmNAT dead-end and product inhibition analysis; format: biochemical; details: inhibitor at 10 mM
Glu34 = Glu34 (UniProt position 34, HYYPEEPLTAG); assay: kinetics; details: 22 °C; MES (pH 6.5 and 7.0), Tris (pH 7.0-9.0), AmeP (pH 9.0 and 9.5). Concentrations for the pH series not stated (standard assay is 300 mM Tris with 150 µM DTNB).; Steady-state turnover; acetyl-CoA varied, agmatine as co-substrate (5 mM saturating in the standard assay); wild-type enzyme, triplicate

T1 sequence (Q9W469 entry or part of it): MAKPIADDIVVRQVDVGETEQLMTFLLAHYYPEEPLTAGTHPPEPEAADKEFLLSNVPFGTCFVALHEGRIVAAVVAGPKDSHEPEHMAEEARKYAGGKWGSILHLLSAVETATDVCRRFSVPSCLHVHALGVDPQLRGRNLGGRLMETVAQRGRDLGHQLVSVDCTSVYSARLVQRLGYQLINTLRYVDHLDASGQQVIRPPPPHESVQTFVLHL

Compound: CC(=O)SCCNC(=O)CCNC(=O)[C@H](O)C(C)(C)COP(=O)(O)OP(=O)(O)OC[C@H]1O[C@@H](n2cnc3c(N)ncnc32)[C@H](O)[C@@H]1OP(=O)(O)O [Acetyl-CoA]
(kcat/Km)app–mutant/(kcat/Km)app–wild–type×100 ([1]; Wild-type, acetyl-CoA varied): 100%
kcat,app ([1]; Wild-type, acetyl-CoA varied, saturating agmatine, pH 8.5): 23 ± 1 s⁻¹
kcat,app ([1]; acyl-CoA varied, 5 mM agmatine, 300 mM Tris-HCl pH 8.5, 150 µM DTNB): 23 ± 1 s⁻¹
Km ([1]; acyl-CoA varied, 5 mM agmatine, 300 mM Tris-HCl pH 8.5, 150 µM DTNB, read-out: Km,app): 100 µM
decrease of Km,app versus wildtype (AgmNAT E34A mutant; E34A mutant, acetyl-CoA): 6 fold
(kcat/Km)app–mutant/(kcat/Km)app–wild–type×100 (AgmNAT E34A mutant; acetyl-CoA varied): 0.27%
(kcat/Km)app–mutant/(kcat/Km)app–wild–type×100 (AgmNAT P35A mutant; acetyl-CoA varied): 0.86%
change (decrease) of Km,app versus wildtype (AgmNAT S171A mutant; S171A mutant, acetyl-CoA): 3- to 4 fold
(kcat/Km)app–mutant/(kcat/Km)app–wild–type×100 (AgmNAT S171A mutant; acetyl-CoA varied): 34%
increase of Km,app versus wild-type (AgmNAT H206A mutant; acetyl-CoA): 2.3 fold
(kcat/Km)app–mutant/(kcat/Km)app–wild–type×100 (AgmNAT H206A mutant; acetyl-CoA varied): 2.3%

Compound: NCCCCN=C(N)N [Agmatine, (4-aminobutyl)guanidine]
(kcat/Km)app–mutant/(kcat/Km)app–wild–type×100 ([1]; Wild-type, agmatine varied): 100%
increase of Km,app versus wildtype (AgmNAT E34A mutant; E34A mutant, agmatine): 20 fold
(kcat/Km)app–mutant/(kcat/Km)app–wild–type×100 (AgmNAT E34A mutant; agmatine varied): 0.0038%
(kcat/Km)app–mutant/(kcat/Km)app–wild–type×100 (AgmNAT P35A mutant; agmatine varied): 3.2%
change (increase) of Km,app versus wildtype (AgmNAT S171A mutant; S171A mutant, agmatine): 3- to 4 fold
(kcat/Km)app–mutant/(kcat/Km)app–wild–type×100 (AgmNAT S171A mutant; agmatine varied): 2.7%
increase of Km,app versus wild-type (AgmNAT H206A mutant; agmatine): 1.4 fold
(kcat/Km)app–mutant/(kcat/Km)app–wild–type×100 (AgmNAT H206A mutant; agmatine varied): 4.7%

acceptance as amine substrate ([1]; amine substrate screen with acetyl-CoA): not AgmNAT substrates
Ki ([2]; varied substrate acetyl-CoA, constant agmatine (0.3 mM), listed as arginine methyl ester, read-out: Ki,i): ≥ 1000 µM
Ki ([2]; varied substrate acetyl-CoA, constant agmatine (0.3 mM), read-out: Ki,i): 2900 ± 100 µM
Ki ([2]; varied substrate agmatine, constant acetyl-CoA (0.1 mM; 104 µM), listed as arginine methyl ester, read-out: Ki,s): ≥ 1000 µM
Ki ([2]; varied substrate agmatine, constant acetyl-CoA (0.1 mM; 104 µM), read-out: Ki,s): 1500 ± 100 µM
type of inhibition plot (in words) ([2]; versus acetyl-CoA): uncompetitive
type of inhibition plot (in words) ([2]; versus agmatine): competitive
decrease of the rate of N-acetylagmatine formation from acetyl-CoA and agmatine [3]: ~ 50%
Compound: COC(=O)[C@@H](N)CCCN=C(N)N [Arginine methyl ester, L-arginine methyl ester]

Compound: Agmatine N-acetyltransferase (AgmNAT; formerly arylalkylamine N-acetyltransferase-like 8, AANATL8) (Drosophila melanogaster)
pKa (Glu34): 7.7 ± 0.1 and 7.3 ± 0.2 and ~7.5
